Two compounds from patent US4265901A, “2-Oxybenzimidazoline compounds” (priority 1979, dated 1981) can be followed below.

Type in all cases: in vivo, Musca domestica
Experiment [1] deals with adult housefly. Kind of experiment: Efficacy against adult housefly, calves intravenous injection (Example 17). The note with it: daily i.v. 0.5 to 1.5 mg/kg escalating, day per line. Here is the method:
(§1) For the adult housefly test, 10 ml. of serum were employed to saturate a wick which was placed in a petri dish. Twenty-five chilled houseflies were placed in the dish which was then incubated for 24 hours at 27° C. and 50% relative humidity. After the end of the twenty-four hours, the efficacy of the candidate compound was determined as the percent mortality of housefly, adjusted as for blowfly by normal mortality in a control and reported according to the same scale as above.
A group of three calves each weighing about 220 kilograms was employed. The compound of Example 2, 2-hydroxy-2-(1,1,2,2-tetrafluoroethyl)-4-nitro-6-(trifluoromethyl)benzimidazoline, sodium salt, was dissolved in distilled water and the resulting solution was administered by intravenous injection. Rates of administration increased throughout the evaluation period, from 0.5 to 1.5 mg./kg. of body weight, with each dose supplied for a period of 5 days (except the 1.5 mg./kg. dose, which was administered for 6 days).
On each day of the evaluation, immediately preceding that day's injection, a sample of blood was withdrawn from each calf. The concentration of the compound in the blood was determined; and the efficacy of the compound against adult housefly and blowfly larvae was assayed by the method described in Example 15. […]

Experiment [2] relates to adult housefly. In words: Efficacy against adult housefly, calves jugular infusion (Example 18). The note with it: Evaluation I, calf 988, jugular infusion 0.66 mg/kg/day to day 10; day/hours per line. As to the method: as §1
On each day of the evaluation, immediately preceding that day's injection, a sample of blood was withdrawn from each calf. The concentration of the compound in the blood was determined; and the efficacy of the compound against adult housefly and blowfly larvae was assayed by the method described in Example 15. Efficacy was reported, however, as the percent of blowfly larvae or adult housefly which was killed. […]
Three evaluations were conducted sequentially with the compound of Example 2, 2-hydroxy-2-(1,1,2,2-tetrafluoroethyl)-4-nitro-6-(trifluoromethyl)benzimidazoline, sodium salt, administered daily to calves by jugular infusion of a solution of the compound in distilled water. As described in the preceding example, blood samples were withdrawn and analyzed for concentration of the compound and efficacy against adult housefly and blowfly larvae.

Experiment [3] relates to adult housefly. In words: Efficacy against adult housefly, calves subcutaneous pellets (Example 20). The note with it: calf 651, subcutaneous pellets about 5 mg./kg.; test day per line. As to the method: as §1
The compound of Example 2, 2-hydroxy-2-(1,1,2,2-tetrafluoroethyl)-4-nitro-6-(trifluoromethyl)benzimidazoline sodium salt, was formulated neat into tablets, each containing about 85 mg. of compound.
These pellets were implanted in the right shoulder area of two calves, weighing 400 and 373 kilograms respectively, to supply a dose of about 5 mg./kg. (animals #651 and 1511, respectively). Another calf (animal #656) was maintained as a control and two additional calves weighing 336 and 350 kilograms (animals #654 and 655, respectively) received pellets of 2-(1,1,2,2-tetrafluoroethyl)-4-nitro-6-(trifluoromethyl)benzimidazole, to supply a dose of about 5 mg./kg. of compound.
As described in preceding examples, blood samples were withdrawn and analyzed for the concentration of the compound in the blood and percent efficacy against adult housefly and blowfly larvae.

For experiment [4], the system named is adult housefly. In words: Adult houseflies fed on serum of dosed guinea pigs. The note with it: guinea pig, serum at 24 hours. As to the method: Representative compounds of the present invention were evaluated against larvae of blowfly (Phormia regina) and against adult housefly (Musca domestica). In these evaluations, the candidate compound was administered to each of two male guinea pigs weighing from about 400 grams to about 1000 grams. Administration was via the intraperitoneal route, the compound having been formulated in sesame oil. At twenty-four hours following administration of the compound, blood was withdrawn from the guinea pigs. The serum portion was isolated and blowfly larvae and adult houseflies were fed on the serum. For the blowfly assay, 10 ml. of serum were placed in a test tube with a wick onto which 50 blowfly larvae were placed. The covered test tube was incubated at 27° C. for 24 hours, at which time efficacy of the candidate compound was determined as the percent mortality of the blowfly larvae, adjusted by normal mortality in a control, and reported according to the following rating scale:
Percent mortality was determined separately for each guinea pig.
as §1

The structures appear in SMILES notation. Counter-ions that a name gives are not always drawn.

Take `O=[N+]([O-])c1cc(C(F)(F)F)cc2c1NC(O)(C(F)(F)C(F)F)N2` (stereo not drawn) [Example 2, 2-Hydroxy-2-(1,1,2,2-Tetrafluoroethyl)-4-Nitro-6-(Trifluoromethyl)Benzimidazoline, Sodium Salt, and Hydrate]: the “% Efficacy, Adult Housefly” value with adult housefly [1] (calf 987), in the experiment with adult housefly [1] (calf 991), in the experiment on adult housefly [2] and in the experiment on adult housefly [3] was 100% each time.
Regarding `O=[N+]([O-])c1cc(Cl)cc2c1NC(O)(C(F)F)N2` (stereo not drawn) [Example 5, 2-Hydroxy-2-(Difluoromethyl)-4-Nitro-6-Chlorobenzimidazoline, Calcium Salt], the “Efficacy Rating, Adult Housefly” value in the experiment on adult housefly [4] (1 mg./kg. i.p.) and with adult housefly [4] (5 mg./kg. i.p.) was 1 (<50% dead) in each case.
